Measured values published in US11242337B2, “Compounds useful for treating gastrointestinal tract disorders” (Ardelyx, Inc., priority 2017, dated 2022).
Like-named read-outs stand apart in the source and are kept apart here.

Experiments:
NHE3 [1] = target: T1, NHE3 (Homo sapiens, UniProt P48764); experiment: persistent inhibition of NHE3 in the cell-based assay of example 181 (4-chloro vs 4-cyano pairs)
T1 construct: expressed in transfected cells
T1 sequence (P48764 26-834): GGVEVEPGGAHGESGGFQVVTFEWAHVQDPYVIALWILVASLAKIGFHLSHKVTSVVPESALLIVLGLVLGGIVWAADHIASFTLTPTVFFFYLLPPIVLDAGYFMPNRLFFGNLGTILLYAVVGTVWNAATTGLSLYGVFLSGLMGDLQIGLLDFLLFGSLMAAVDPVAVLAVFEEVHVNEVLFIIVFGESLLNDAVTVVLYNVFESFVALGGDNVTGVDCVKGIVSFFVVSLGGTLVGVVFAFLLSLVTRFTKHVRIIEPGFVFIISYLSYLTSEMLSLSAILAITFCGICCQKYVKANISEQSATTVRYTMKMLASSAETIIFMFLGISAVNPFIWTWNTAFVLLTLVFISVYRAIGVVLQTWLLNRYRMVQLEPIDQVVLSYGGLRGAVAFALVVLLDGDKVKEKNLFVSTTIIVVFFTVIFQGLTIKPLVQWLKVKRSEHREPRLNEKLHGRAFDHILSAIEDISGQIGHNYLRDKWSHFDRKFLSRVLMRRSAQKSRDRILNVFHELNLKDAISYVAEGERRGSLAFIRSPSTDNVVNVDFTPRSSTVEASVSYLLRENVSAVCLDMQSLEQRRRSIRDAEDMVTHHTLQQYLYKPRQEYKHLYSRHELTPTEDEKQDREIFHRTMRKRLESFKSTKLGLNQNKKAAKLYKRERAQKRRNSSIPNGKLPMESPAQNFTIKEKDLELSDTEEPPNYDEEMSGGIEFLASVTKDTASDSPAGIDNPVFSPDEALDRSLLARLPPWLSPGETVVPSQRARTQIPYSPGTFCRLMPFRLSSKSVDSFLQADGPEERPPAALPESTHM
T1 sequence (Q99653 2-195 partner limits assumed): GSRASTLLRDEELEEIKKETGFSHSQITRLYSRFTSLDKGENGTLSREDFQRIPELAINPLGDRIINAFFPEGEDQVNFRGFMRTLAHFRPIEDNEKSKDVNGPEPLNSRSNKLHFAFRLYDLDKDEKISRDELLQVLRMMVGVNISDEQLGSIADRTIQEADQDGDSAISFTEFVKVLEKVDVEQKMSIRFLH
Method: The following pairs of compounds differ only in the 4-position substituent (either chloro (X—Cl) or cyano (X—CN)):
The ability of compounds to inhibit human and rat NHE-3-mediated Na^+ dependent H^+ antiport after application and washout was measured using a modification of the pH sensitive dye method described above. PS120 fibroblasts stably expressing human NHE3 and NHERF2 were obtained from Mark Donowitz (Baltimore, Md.). Opossum kidney (OK) cells were obtained from the ATCC and propagated per their instructions. The rat NHE-3 gene was introduced into OK cells via electroporation, and cells were seeded into 96 well plates and grown overnight. Medium was aspirated from the wells, cells were washed once with NaCl-HEPES buffer (100 mM NaCl, 50 mM HEPES, 10 mM glucose, 5 mM KCl, 2 mM CaCl2, 1 mM MgCl2, pH 7.4), then overlayed with NaCl-HEPES buffer containing 0-30 μM test compound. After a 60 min incubation at room temperature, the test drug containing buffer was aspirated from the cells. Following aspiration, cells were washed once with NaCl-HEPES buffer without drug, then incubated for 30 min at 37° C. with NH4Cl-HEPES buffer (20 mM NH4Cl, 80 mM NaCl, 50 mM HEPES, 5 mM KCl, 2 mM CaCl2, 1 mM MgCl2, pH 7.4) containing 5 μM BCECF-AM. Cells were washed once with Ammonium free, Na^+-free HEPES (100 mM choline, 50 mM HEPES, 10 mM glucose, 5 mM KCl, 2 mM CaCl2, 1 mM MgCl2, pH 7.4) and incubated in the same buffer for 10 minutes at room temperature to lower intracellular pH. NHE-3-mediated recovery of neutral intracellular pH was initiated (10 min after compound washout) by addition of Na-HEPES buffer. […] Changes in intracellular pH were monitored using a FLIPR Tetra® (Molecular Devices, Sunnyvale, Calif.) by excitation at λex 439 to 505 nm, and measuring BCECF fluorescence at λem 538 nm. The initial rate of the fluorescence ratio change was used as a measure of NHE-mediated Na^+/H^+ activity, and reported as the change in fluorescence ratio per minute.

NHE3 [2] = target: T1, NHE3; experiment: Cell-based assay of NHE-3 activity (pre-incubation inhibition), human; details: human Preincubation; for pIC50: 0-30 μM test compound
Outline: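 Activity read as initial rate of BCECF fluorescence ratio change per minute (ex 439/505, em 538 nm) following NH4Cl prepulse acid loading. Compound (0–30 μM) present during 10 min Na+-free acidification at room temperature; cells were PS120 fibroblasts stably co-expressing human NHE3 and NHERF2.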

NHE3 [3] = target: T1, NHE3; experiment: Cell-based assay of NHE-3 activity (persistent inhibition), human; details: human Persistence, 60 min incubation then washout
Outline: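 Persistent inhibition: compound (0-30 μM, 60 min, RT, NaCl-HEPES pH 7.4) removed before assay. Human NHE3/NHERF2 PS120 cells were then BCECF-loaded during NH4Cl pulse (30 min, 37 °C), acidified in Na+-free buffer, and Na+ added 10 min after washout; antiport measured as initial fluorescence-ratio change per minute.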

[4] = tested on: absorption of sodium from the intestinal lumen; experiment: Inhibition of intestinal sodium absorption in mice; type: in vivo; details: CD-1 mice, 15 mg/kg oral gavage twice daily; for response vs control in vivo at 15 mg/kg: Mus musculus, 72 h, day 3, normalized to dietary sodium intake
Method: Urinary and fecal sodium excretions were measured to assess the ability of selected example compounds to inhibit the absorption of sodium from the intestinal lumen. In addition, an assessment of the absence or presence of diarrhea in response to compound treatment was made. Approximately eight-week old, male, CD-1 mice were purchased from Envigo (Livermore, Calif.), were housed 6 per cage and acclimated for at least 48 hours before study initiation. Animals were fed Harlan Teklad Global TD.160470 rodent chow (Madison, Wis.), standard laboratory rodent chow Harlan Teklad Global 2018 with the addition of 0.4% inorganic phosphorous. […] To initiate the study, mice were weighed and then individually placed in metabolic cages. Following a 3-day acclimation period to the metabolic cage, a 24-hr baseline collection of urine and feces was performed. […] Each day, measurements of body weight. 24-hour food intake, water intake, urine volume and wet fecal weight were recorded, along with any observation of diarrhea. Fecal samples were dried using a lyophilizer for at least 3 days, following which dry weight was recorded and fecal fluid content was calculated based on the difference between the wet and dry stool weights. Fecal fluid content on day 3 of compound treatment was calculated as a change from the vehicle group mean. For urine samples, the volumes were determined gravimetrically. Feces and urine were analyzed for sodium content by microwave plasma-atomic emission spectroscopy or ion chromatography, respectively. Urine samples were analyzed on an ion chromatography system (Thermo Fisher ICS-3000 or ICS-5000+) coupled with conductivity detectors. Chromatographic separation of cations was performed using an IonPac CS12A (Thermo Fisher) 2×250 mm analytical column with an isocratic elution using […] methanesulfonic acid. Concentrations were interpolated from a a standard curve (prepared in 10 mM HCl) for sodium ion based on retention time and peak area. Fecal sample analysis by Microwave Plasma Atomic Emission Spectrometry (MP-AES). Dry fecal samples were ground into a fine powder on a homogenizer and the ground samples (400-600 mg aliquots weighed) were digested with nitric acid by microwave method (Mars 6). These digested samples were diluted with 1% Nitric acid and analyzed on Agilent 4100 MP-AES. Concentrations were calculated relative to a standard curve (prepared in 1% Nitric acid) for sodium based on the signal intensity. Sodium was detected at a wavelength of 588.995 nm. Twenty-four-hour urinary sodium excretion (ma/24-hours) was calculated by multiplying urinary sodium concentration by 24-hour urine volume. Twenty-four-hour fecal sodium excretion (mg/24-hours) was calculated by multiplying fecal sodium concentration by 24-hour dry fecal weight. The urinary and fecal sodium excretion on day 3 of compound treatment were normalized to dietary sodium intake and expressed as a percentage of the vehicle mean.

C[C@@H]1CN([C@H]2Cc3c(C#N)cc(Cl)cc3[C@@H]2Oc2ccc(S(=O)(=O)N[C@@H]3CCN(CCOCCNC(=O)NCCCCNC(=O)NCCOCCN4CC[C@@H](NS(=O)(=O)c5ccc(O[C@H]6c7cc(Cl)cc(C#N)c7C[C@@H]6N6CCN[C@H](C)C6)cc5)C4)C3)cc2)CCN1 [A-CN, 3-(2-{2-[(3R)-3-(4-{[(1S,2S)-6-chloro-4-cyano-2-[(3R)-3-methylpiperazin-1-yl]-2,3-dihydro-1H-inden-1-yl]oxy}benzenesulfonamido)pyrrolidin-1-yl]ethoxy}ethyl)-1-(4-{[(2-{2-[(3R)-3-(4-{[(1S,2S)-6-chloro-4-cyano-2-[(3R)-3-methylpiperazin-1-yl]-2,3-dihydro-1H-inden-1-yl]oxy}benzenesulfonamido)pyrrolidin-1-yl]ethoxy}ethyl)carbamoyl]amino}butyl)urea]
IC50 (NHE3 [1]; cell-based assay of example 181, after washout, read-out: pIC50 (persistent) (converted)): 631 pM
Percent Inhibition (NHE3 [1]; cell-based assay of example 181, persistent): 101%

CN(C)[C@@H]1CCCN([C@H]2Cc3c(Cl)cc(Cl)cc3[C@@H]2Oc2ccc(S(=O)(=O)NCCOCCOCCNC(=O)NCCCCNC(=O)NCCOCCOCCNS(=O)(=O)c3ccc(O[C@H]4c5cc(Cl)cc(Cl)c5C[C@@H]4N4CCC[C@@H](N(C)C)C4)c(F)c3)cc2F)C1 [Example 27, 3-[2-(2-[2-[(4-[[(1S,2S)-4,6-Dichloro-2-[(3R)-3-(dimethylamino)piperidin-1-yl]-2,3-dihydro-1H-inden-1-yl]oxy]-3-fluorobenzene)sulfonamido]ethoxy]ethoxy)ethyl]-1-[4-([[2-(2-[2-[(4-[[(1S,2S)-4,6-dichloro-2-[(3R)-3-(dimethylamino)piperidin-1-yl]-2,3-dihydro-1H-inden-1-yl]oxy]-3-fluorobenzene)sulfonamido]ethoxy]ethoxy)ethyl]carbamoyl]amino)butyl]urea; bis(trifluoroacetic acid)]
% inhibition (NHE3 [2]): C (>70%)
% inhibition (NHE3 [3]): C (>70%)
Fecal fluid content (Δ from vehicle) ([4]; day 3, change from vehicle group mean): C (>10)
response vs control in vivo at 15 mg/kg ([4]; read-out: Fecal Na Excretion (% of vehicle)): > 200%
response vs control in vivo at 15 mg/kg ([4]; read-out: Urinary Na Excretion (% of vehicle)): 50 to 70%

N#Cc1cc(Cl)cc2c1C[C@H](N1CCNCC1)[C@H]2Oc1ccc(S(=O)(=O)N[C@@H]2CCN(C(=O)CCCNC(=O)NCCCCNC(=O)NCCCC(=O)N3CC[C@@H](NS(=O)(=O)c4ccc(O[C@H]5c6cc(Cl)cc(C#N)c6C[C@@H]5N5CCNCC5)cc4)C3)C2)cc1 [Example 142, 4-([(1S,2S)-6-Chloro-4-cyano-2-(piperazin-1-yl)-2,3-dihydro-1H-inden-1-yl]oxy)-N—[(R)-1-(18-[(R)-3-([4-([(1S,2S)-6-chloro-4-cyano-2-(piperazin-1-yl)-2,3-dihydro-1H-inden-1-yl]oxy)phenyl]sulfonamido)pyrrolidin-1-yl]-6,13,18-trioxo-5,7,12,14-tetraazaoctadecanoyl)pyrrolidin-3-yl]benzenesulfonamide]
% inhibition (NHE3 [2]): C (>70%)
pIC50 (NHE3 [2]): C (NHE3 pIC50 > 7)
% inhibition (NHE3 [3]): C (>70%)
pIC50 (NHE3 [3]): C (NHE3 pIC50 > 7)

N#Cc1cc(Cl)cc2c1C[C@H](N1CCNCC1)[C@H]2Oc1ccc(S(N)(=O)=O)cc1 [Example 146, 4-([(1S,2S)-6-Chloro-4-cyano-2-(piperazin-1-yl)-2,3-dihydro-1H-inden-1-yl]oxy)benzenesulfonamide]
% inhibition (NHE3 [2]): C (>70%)
pIC50 (NHE3 [2]): C (NHE3 pIC50 > 7)
% inhibition (NHE3 [3]): A (NHE3 < 40%)
pIC50 (NHE3 [3]): C (NHE3 pIC50 > 7)

N#Cc1cc(Cl)cc2c1C[C@H](N1CCNCC1)[C@H]2Oc1ccc(S(=O)(=O)NC2CCN(C(=O)CCCNC(=O)NCCCC(=O)N3CCC(NS(=O)(=O)c4ccc(O[C@H]5c6cc(Cl)cc(C#N)c6C[C@@H]5N5CCNCC5)cc4)CC3)CC2)cc1 [Example 154, 4-([(1S,2S)-6-Chloro-4-cyano-2-(piperazin-1-yl)-2,3-dihydro-1H-inden-1-yl]oxy)-N-[1-(4-[3-(4-[4-([4-([(1S,2S)-6-chloro-4-cyano-2-(piperazin-1-yl)-2,3-dihydro-1H-inden-1-yl]oxy)phenyl]sulfonamido)piperidin-1-yl]-4-oxobutyl)ureido]butanoyl)piperidin-4-yl]benzenesulfonamide]
% inhibition (NHE3 [2]): C (>70%)
pIC50 (NHE3 [2]): C (NHE3 pIC50 > 7)
% inhibition (NHE3 [3]): C (>70%)
pIC50 (NHE3 [3]): C (NHE3 pIC50 > 7)
